Here are results for 22 molecules from patent US9464084B2, “P2X7 modulators” (Janssen Pharmaceutica NV, priority 2013, dated 2016).

Structures can show the parent of a compound that is named as a salt.

Test [1] deals with T1, P2X7 (Homo sapiens (Human), UniProt Q99572). The test can be described thus: P2X7 antagonism in human PBMCs (LPS + Bz-ATP induced IL-1β release, ELISA).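 For all read-outs here: PBMCs from donor human blood, with a further 1.5 h incubation of the cells in the assay.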 The class given is cell-based. Conditions: LPS 30 ng/ml, Bz-ATP 0.5 mM; for PBMC 1 μM (% control): compound 1 μM; for PBMC 10 μM (% control): compound 10 μM. (In general: ELISA stands for enzyme-linked immunosorbent assay.)
T1 sequence (Q99572 whole entry): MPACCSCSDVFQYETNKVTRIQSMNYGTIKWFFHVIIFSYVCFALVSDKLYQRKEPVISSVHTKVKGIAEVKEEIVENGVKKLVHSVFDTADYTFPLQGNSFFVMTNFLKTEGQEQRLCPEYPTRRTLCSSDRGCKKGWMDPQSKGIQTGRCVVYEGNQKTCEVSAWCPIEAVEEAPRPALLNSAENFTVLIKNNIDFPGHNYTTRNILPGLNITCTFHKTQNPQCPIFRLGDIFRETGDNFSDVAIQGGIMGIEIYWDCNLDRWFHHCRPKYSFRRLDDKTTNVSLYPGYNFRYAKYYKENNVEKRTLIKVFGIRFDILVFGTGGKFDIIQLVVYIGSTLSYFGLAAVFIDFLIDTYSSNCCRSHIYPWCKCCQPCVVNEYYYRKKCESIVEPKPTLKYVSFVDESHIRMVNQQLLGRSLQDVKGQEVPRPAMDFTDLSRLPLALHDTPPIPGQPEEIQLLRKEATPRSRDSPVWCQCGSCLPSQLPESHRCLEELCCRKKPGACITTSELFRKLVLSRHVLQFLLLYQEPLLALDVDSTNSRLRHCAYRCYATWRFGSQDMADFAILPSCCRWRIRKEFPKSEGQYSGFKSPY
In test [2] the target is T1, P2X7. The test can be described thus: Radioligand binding, tritiated A-804598, human P2X7-1321N1 cell membranes.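 Note: ki obtained from the binding IC50 after correction for tracer concentration and tracer affinity.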 Conditions: 1 hour at 4° C.
Method: On the day of the experiment, cell membrane preparations were made according to standard published methods. […] The assay was terminated by filtration (GF/B filters pre-soaked with 0.3% PEI) and washed with washing buffer (Tris-HCl 50 mM). The IC50 generated in the binding assay was corrected for tracer concentration and affinity of the tracer to derive at the affinity (Ki) of the test compounds.
The target in test [3] is T1, P2X7. The test can be described thus: Ca2+ flux (FLIPR) in 1321N1 cells expressing recombinant human P2X7 channel.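 Note: Calcium-4 dye-loaded cells exposed to compound for 30 min before agonist addition, fluorescence change read 180 s after agonist.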 The class given is cell-based. Conditions: 250 μM BzATP. (A change in cytosolic calcium serves as a functional read-out for many receptors and channels.)
Test [4] addresses rat P2X7 (Rattus norvegicus (Rat), UniProt Q64663). The test can be described thus: Ca2+ flux (FLIPR) in 1321N1 cells expressing recombinant rat P2X7 channel.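 Note: Calcium-4 dye fluorescence change read 180 s after agonist addition, following 30 min cell preincubation with test compound.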 The class given is cell-based. Conditions: 250 μM BzATP.

rat P2X7, sequence (Q64663 whole entry): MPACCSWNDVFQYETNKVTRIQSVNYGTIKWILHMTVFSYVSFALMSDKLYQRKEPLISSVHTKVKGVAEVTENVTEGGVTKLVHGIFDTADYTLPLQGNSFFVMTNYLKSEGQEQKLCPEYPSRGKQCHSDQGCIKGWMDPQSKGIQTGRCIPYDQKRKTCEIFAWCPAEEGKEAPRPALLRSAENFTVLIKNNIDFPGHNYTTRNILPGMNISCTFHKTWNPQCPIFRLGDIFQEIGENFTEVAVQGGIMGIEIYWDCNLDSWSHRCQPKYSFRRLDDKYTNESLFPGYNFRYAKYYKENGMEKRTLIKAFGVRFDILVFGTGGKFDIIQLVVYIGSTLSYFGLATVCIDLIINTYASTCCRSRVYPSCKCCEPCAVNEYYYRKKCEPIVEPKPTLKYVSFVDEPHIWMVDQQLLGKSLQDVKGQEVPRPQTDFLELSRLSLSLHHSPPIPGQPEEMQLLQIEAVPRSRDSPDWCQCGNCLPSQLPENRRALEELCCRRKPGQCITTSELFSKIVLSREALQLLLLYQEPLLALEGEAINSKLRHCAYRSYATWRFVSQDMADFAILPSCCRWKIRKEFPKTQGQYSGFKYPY

The term Ki denotes a measure of affinity in units of concentration, obtained from inhibition or displacement. A word on the IC50: it is the point on the concentration scale where inhibition reaches its midpoint. Take `O=C(c1cccc(C(F)(F)F)c1Cl)N1C=Cc2c(ncn2-c2cnccn2)C1` [Example 54, 5-{[2-Chloro-3-(trifluoromethyl)phenyl]carbonyl}-1-pyrazin-2-yl-4,5-dihydro-1H-imidazo[4,5-c]pyridine]: in test [1], the “PBMC 1 μM (% control)” value amounted to 8.6 % control. For the same molecule, in test [2], the Ki amounted to 43.7 nM. Moreover, the IC50 in test [3] is 198 nM; in test [4], 4110 nM.
On the same counts, the results for `CCC1c2ncn(-c3cnccn3)c2C=CN1C(=O)c1cccc(C(F)(F)F)c1Cl` (stereo not shown) [Example 55, 5-{[2-Chloro-3-(trifluoromethyl)phenyl]carbonyl}-4-ethyl-1-pyrazin-2-yl-4,5-dihydro-1H-imidazo[4,5-c]pyridine] are 11.3 % control, 126 nM, 16.7 nM and 259 nM.
For the molecule `O=C(c1cccc(Cl)c1Cl)N1CCc2c(nc(C(F)(F)F)n2-c2ccccc2)C1` [Example 58, 5-[(2,3-Dichlorophenyl)carbonyl]-1-phenyl-2-(trifluoromethyl)-4,5,6,7-tetrahydro-1H-imidazo[4,5-c]pyridine], the “PBMC 10 μM (% control)” value in test [1] is given as −2.0 % control. The molecule further had a Ki in test [2] of 126 nM. Besides, the figures for the IC50 in test [3] and in test [4] were 10.7 nM and 766 nM, respectively.
For `O=C(c1cccc(C(F)(F)F)c1F)N1CCc2c(ncn2-c2ccn[nH]2)C1` [Example 59, 5-{[2-Fluoro-3-(trifluoromethyl)phenyl]carbonyl}-1-(1H-pyrazol-5-yl)-4,5,6,7-tetrahydro-1H-imidazo[4,5-c]pyridine], in that order: 10.2 % control, 501 nM, 378 nM and 527 nM.
For the molecule `O=C(c1cccc(C(F)(F)F)c1Cl)N1CCc2c(nnn2-c2ccccc2)C1` [Example 61, 5-{[2-Chloro-3-(trifluoromethyl)phenyl]carbonyl}-1-phenyl-4,5,6,7-tetrahydro-1H-[1,2,3]triazolo[4,5-c]pyridine], in test [1], the “PBMC 1 μM (% control)” value is given as −0.1 % control. For the same molecule, the Ki in test [2] stood at 38.9 nM. In addition, the IC50 stood at 4.7 nM in test [3] and 1400 nM in test [4].
For `O=C(c1cccc(Cl)c1Cl)N1CCc2c(nnn2-c2ccccc2)C1` [Example 62, 5-[(2,3-Dichlorophenyl)carbonyl]-1-phenyl-4,5,6,7-tetrahydro-1H-[1,2,3]triazolo[4,5-c]pyridine], the “PBMC 1 μM (% control)” value in test [1] is 5.2 % control. In test [2], this molecule yielded a Ki of 43.7 nM. The IC50 came to 76.2 nM in test [3] and 4280 nM in test [4].
Turning to `O=C(c1cccc(C(F)(F)F)c1Cl)N1CCc2c(nnn2-c2ccn[nH]2)C1` [Example 68, 5-{[2-Chloro-3-(trifluoromethyl)phenyl]carbonyl}-1-(1H-pyrazol-5-yl)-4,5,6,7-tetrahydro-1H-[1,2,3]triazolo[4,5-c]pyridine], the “PBMC 10 μM (% control)” value in test [1] turned out to be 12.9 % control. In test [2], this molecule had a Ki of 18.2 nM. Further, the results for the IC50 in test [3] and in test [4] were 16.9 nM and 184 nM, respectively.
Consider `O=C(c1cccc(C(F)(F)F)c1F)N1CCc2c(nnn2-c2cnccn2)C1` [Example 69, 5-{[2-Fluoro-3-(trifluoromethyl)phenyl]carbonyl}-1-pyrazin-2-yl-4,5,6,7-tetrahydro-1H-[1,2,3]triazolo[4,5-c]pyridine], for which the “PBMC 10 μM (% control)” value in test [1] amounted to 6.8 % control. This molecule displayed a Ki in test [2] of 14.1 nM. Further, the IC50 in test [3] was 106 nM; in test [4], 1460 nM.
Turning to `CC1c2nnn(-c3cnccn3)c2C=CN1C(=O)c1cccc(C(F)(F)F)c1Cl` (stereo not shown) [Example 72, 5-{[2-Chloro-3-(trifluoromethyl)phenyl]carbonyl}-4-methyl-1-pyrazin-2-yl-4,5-dihydro-1H-[1,2,3]triazolo[4,5-c]pyridine], the “PBMC 1 μM (% control)” value in test [1] is reported as −5.7 % control. Besides, the Ki in test [2] is 29.5 nM. Besides, the 50% inhibitory concentration (IC50) in test [3] was 4.2 nM; in test [4], 169 nM.
On the same counts, the results for `O=C(c1cccc(C(F)(F)F)c1Cl)N1CCc2[nH]nnc2C1c1ccccc1` (stereo not shown) [Example 78, 5-{[2-Chloro-3-(trifluoromethyl)phenyl]carbonyl}-4-phenyl-4,5,6,7-tetrahydro-1H-[1,2,3]triazolo[4,5-c]pyridine] are 57.7 % control, 100 nM, 63.1 nM and 501 nM.
On the same counts, the results for `CC1c2nnn(-c3ncccn3)c2C=CN1C(=O)c1cccc(C(F)(F)F)c1Cl` (stereo not shown) [Example 79, 5-{[2-Chloro-3-(trifluoromethyl)phenyl]carbonyl}-4-methyl-1-pyrimidin-2-yl-4,5-dihydro-1H-[1,2,3]triazolo[4,5-c]pyridine] are 23.2 % control, 31.6 nM, 6.2 nM and 86.5 nM.
As to `CC1c2nnn(-c3ccc(F)cc3)c2C=CN1C(=O)c1cccc(C(F)(F)F)c1Cl` (stereo not shown) [Example 81, 5-{[2-Chloro-3-(trifluoromethyl)phenyl]carbonyl}-1-(4-fluorophenyl)-4-methyl-4,5-dihydro-1H-[1,2,3]triazolo[4,5-c]pyridine], the “PBMC 10 μM (% control)” value in test [1] turned out to be 5.9 % control. In test [2], this molecule came in with a Ki of 63.1 nM. In addition, the IC50 in test [3] turned out to be 73.5 nM; in test [4], 108 nM.
As to `CC1c2nnn(-c3ncccc3F)c2C=CN1C(=O)c1cccc(C(F)(F)F)c1Cl` (stereo not shown) [Example 82, 5-{[2-Chloro-3-(trifluoromethyl)phenyl]carbonyl}-1-(3-fluoropyridin-2-yl)-4-methyl-4,5-dihydro-1H-[1,2,3]triazolo[4,5-c]pyridine], in test [1], the “PBMC 10 μM (% control)” value was determined as 7.9 % control. In test [2], this molecule showed a Ki of 57.5 nM. For the same molecule, the IC50 in test [3] worked out at 17.3 nM; in test [4], 154 nM.
`CC1c2nnn(-c3ccc(F)cc3)c2CCN1C(=O)c1cccc(C(F)(F)F)c1Cl` (stereo not shown) [Example 83, 5-{[2-Chloro-3-(trifluoromethyl)phenyl]carbonyl}-1-(4-fluorophenyl)-4-methyl-4,5,6,7-tetrahydro-1H-[1,2,3]triazolo[4,5-c]pyridine]: the “PBMC 10 μM (% control)” value in test [1] is reported as 4.5 % control. In addition, affinity in test [2] was put at a Ki of 158 nM. Besides, the IC50 in test [3] worked out at 16.9 nM; in test [4], 397 nM.
On the same counts, the results for `CC1c2nnn(-c3cc[nH]n3)c2C=CN1C(=O)c1cccc(C(F)(F)F)c1Cl` (stereo not shown) [Example 86, 5-{[2-Chloro-3-(trifluoromethyl)phenyl]carbonyl}-4-methyl-1-(1H-pyrazol-3-yl)-4,5-dihydro-1H-[1,2,3]triazolo[4,5-c]pyridine] are 13.0 % control, 39.8 nM, 12.9 nM and 136 nM.
Take `O=C(c1cccc(C(F)(F)F)c1Cl)N1C=Cc2c(nnn2-c2cnccn2)C1` [Example 89, 5-{[2-Chloro-3-(trifluoromethyl)phenyl]carbonyl}-1-pyrazin-2-yl-4,5-dihydro-1H-[1,2,3]triazolo[4,5-c]pyridine]: the “PBMC 1 μM (% control)” value in test [1] is on record as −1.5 % control. The Ki in test [2] was 15.8 nM. The IC50 in test [3] was determined as 5.5 nM; in test [4], 908 nM.
For `O=C(c1cccc(C(F)(F)F)c1Cl)N1C=Cc2c(nnn2-c2ccccn2)C1` [Example 90, 5-{[2-Chloro-3-(trifluoromethyl)phenyl]carbonyl}-1-pyridin-2-yl-4,5-dihydro-1H-[1,2,3]triazolo[4,5-c]pyridine], in that order: 13.3 % control, 29.5 nM, 10.3 nM and 973 nM.
On the same counts, the results for `Cn1nc2c(c1-c1ccccn1)CCN(C(=O)c1cccc(C(F)(F)F)c1Cl)C2` [Example 92, 6-{[2-Chloro-3-(trifluoromethyl)phenyl]carbonyl}-2-methyl-3-pyridin-2-yl-4,5,6,7-tetrahydro-2H-pyrazolo[3,4-c]pyridine] are 2.8 % control, 26.3 nM, 5.4 nM and 440 nM.
On the same counts, the results for `O=C(c1cccc(C(F)(F)F)c1Cl)N1CCc2c(-c3ccccn3)n[nH]c2C1` [Example 93, 6-{[2-Chloro-3-(trifluoromethyl)phenyl]carbonyl}-3-pyridin-2-yl-4,5,6,7-tetrahydro-2H-pyrazolo[3,4-c]pyridine. TFA salt] are 9.0 % control, 39.8 nM, 7.9 nM and 251 nM.
Regarding `O=C(c1cccc(C(F)(F)F)c1Cl)N1CCc2c(-c3ccc(F)cn3)n[nH]c2C1` [Example 94, 6-{[2-Chloro-3-(trifluoromethyl)phenyl]carbonyl}-3-(5-fluoropyridin-2-yl)-4,5,6,7-tetrahydro-2H-pyrazolo[3,4-c]pyridine], the “PBMC 10 μM (% control)” value in test [1] turned out to be 10.8 % control. The molecule further yielded a Ki in test [2] of 31.6 nM. In addition, the IC50 in test [3] stood at 12.4 nM; in test [4], 123 nM.
For `O=C(c1cccc(C(F)(F)F)c1Cl)N1CCc2c(-c3cncc(F)c3)n[nH]c2C1` [Example 95, 6-{[2-Chloro-3-(trifluoromethyl)phenyl]carbonyl}-3-(5-fluoropyridin-3-yl)-4,5,6,7-tetrahydro-2H-pyrazolo[3,4-c]pyridine], in that order: 14.4 % control, 316 nM, 204 nM and > 10000 nM.
On the same counts, the results for `O=C(c1cccc(C(F)(F)F)c1Cl)N1CCc2c(-c3cccnc3)n[nH]c2C1` [Example 96, 6-{[2-Chloro-3-(trifluoromethyl)phenyl]carbonyl}-3-pyridin-3-yl-4,5,6,7-tetrahydro-2H-pyrazolo[3,4-c]pyridine] are 3.6 % control, 14.8 nM, 2.5 nM and 179 nM.
